From patent US11248022B2, “Glypican-3 peptide reagents and methods” (THE REGENTS OF THE UNIVERSITY OF MICHIGAN, priority 2017, dated 2022)
Where two headings read alike, the source gives them in different places. Ends that are not written are not given here.

What was measured:
Hep3B xenograft = experiment: In vivo NIR laparoscopic imaging of HCC xenograft tumors; set-up: species or system mice; details: NIR laparoscope, 2 hours after i.v. injection, n=8
Experimental: Human HCC cells Hep3B and SK-Hep1 were cultured in Eagle's Minimum Essential Medium (EMEM) at 37° C. in 5% CO2, and supplemented with 10% fetal bovine serum (FBS) and 1% penicillin/streptomycin. Western blotting was performed to validate expression level of GPC3. Cells were diluted in growth factor reduced (GFR) Matrigel Matrix (Corning), and injected into one flank of female (to avoid male dominance within a cage) nude athymic mice (nu/nu, Jackson Laboratory) at 4 to 6 weeks of age with weight between 20 to 25 grams. ˜5×10^6 cells were implanted per mouse.
A standard surgical laparoscope (#49003 AA, HOPKINS® II Straight Forward Telescope 0°, Karl Storz) that is ˜10 mm in diameter and has a 31 cm length rigid sheath was adapted to collect reflectance and fluorescence concurrently. Nude mice with human HCC xenograft 2 weeks post implantation were tail vein injected with 200 μL 300 μM GPC3 peptide ALL*-Cy5.5. During imaging, the mice were anesthetized with inhaled isoflurane. We first used laparoscope with white light illumination to exam the xenograft. Laparoscopic images were taken two hours post injection in both fluorescence and reflection mode simultaneously with excitation solid state diode laser (660-S, Toptica Photonics) to deliver excitation at λex=660 nm into the fiber optic light guide. Images were collected at 5 frames/sec with a laser power of 1.2 mW. Hoechst 33342 (H1399, Life Technologies) at a dose of 10 mg/kg diluted in 200 μL of PBS was delivered intravenously via a tail vein injection to stain the cell nuclei 30 minutes before sacrificing the mouse. Xenograft tumors were resected and confocal fluorescence images were collected with Cy5.5 and DAPI filters 50 μm beneath the surface using a confocal microscope (Leica SPSX Upright 2-Photon Confocal Microscope). Following imaging, resected xenografts were fixed and formalin embedded for immunohistochemistry and H&E staining as described previously.
Fluorescence images of mouse HCC xenograft taken at 2 hrs post peptide injection were registered with corresponding reflectance images taken simultaneously. The fluorescence intensity of each pixel in the image was divided by intensity of corresponding pixel in the reflectance image in order to account for the difference in distance between each pixel and the laser source. A heat map image was generated from the resulting ratios at each pixel. Image segmentation was performed automatically by custom Matlab (Mathworks) software program using Ostu's Method [Otsu, Automatica, 11(285-296): 23-27 (1975)]. Target to background ratio of each processed image was calculated by dividing the average intensity of pixels inside the segmented tumor and that of those within 30 pixels outside of segmentation outline.

[1] = tested on: GPC3 positive tumor (from Hep3B cells); experiment: In vivo whole body fluorescent imaging of HCC xenograft
Experimental: Mice bearing HCC xenograft tumor (arrowheads) were i.v. injected with 250 μL of 300 μM near NIR GPC3 targeting peptide ALL*-Cy5.5, scrambled control peptide QLE*-Cy5.5 and unlabeled Cy5.5 free dye alone. ALL*-Cy5.5 was also injected in mice bearing GPC3 negative tumor (from SK Hep-1 cells, arrows) as control of EPR effect. Pre-injection imaging confirmed no autofluorescence was present.

Hep3B cells = experiment: Competition for peptide binding on Hep3B cells; type: cell-based, human
Experimental: The specificity of peptide reagent binding was also validated by competition assay. Hep3B cells were grown on cover glass and incubated first with unlabeled peptides over a range of concentrations (0-500 μM), and then with ALL*-Cy5.5 peptide. The fluorescence intensities were measured using confocal microscopy. […] Differences in fluorescence intensity between the ALL*-Cy5.5 peptide reagent and control are significant at concentrations of 50 μM and greater.

[2] = molecular target: purified recombinant GPC3 core protein (Homo sapiens, UniProt P51654); experiment: Phage display biopanning; type: binding; details: four rounds of biopanning
Experimental: A panel of candidate peptides that are specific to GPC3 was identified using phage display technology. Peptide selection was performed using a library of M13 bacteriophage that express ˜10^9 unique clones of each individual sequence [Zhou et al., Clin Transl Gastroenterol, 6:e101 (2015); Joshi et al., Bioconjug Chem, 27:481-494 (2016); Rabinsky et al., Cell Mol Gastroenterol Hepatol, 2:222-237 (2016)]. The library was biopanned against purified recombinant GPC3 core protein immobilized in a 6-well plate. Four rounds of biopanning were performed using decreasing quantity (100, 80, 60, and 40 μg) of GPC3 core protein in successive rounds to increase binding specificity. The bound phages were eluted, amplified, precipitated and tittered using standard protocols, and the enriched clones from the candidate pool were sequenced to identify the lead candidates: ALLANHEELF (SEQ ID NO: 2), GLHTSATNLYLH (SEQ ID NO: 3), SGVYKVAYDWQH (SEQ ID NO: 4) and VGVESCASRCNN (SEQ ID NO: 5).

Hep3B xenograft tumors = experiment: Ex vivo confocal validation on Hep3B xenograft sections and normal liver; set-up: species or system mice; details: normal mouse liver sections
Text: (§1) The specimens were also sectioned for collection of confocal images to perform microscopic validation of peptide binding ex vivo.

SK-Hep1 xenograft tumors = experiment: Immunostaining on GPC3 negative SK-Hep1 xenograft sections; set-up: species or system mice; details: no GPC3 expression
Text: FIGS. 18A-D show immunostaining on GPC3 negative HCC xenograft tumor.
as §1

Hep3B human HCC cells = experiment: Confocal microscopy of peptide binding to Hep3B cells; type: cell-based; details: Hep3B cells, confocal microscopy
Experimental: (§2) FIGS. 6-2A-Q show validation of specific peptide binding to cells in vitro. […] The Hep3B versus SK-Hep1 difference was also larger for antibody than QLE (P=2.3×10^−8, 6.0-fold larger). Intensity was measured with 6 replicates per condition and fitted to an ANOVA model with terms for 9 means to log-transformed data. […] We further validated specific peptide binding to GPC3 using siRNA knockdown. […] Q) Quantified fluorescence intensities. The siCL vs siGPC3 difference was 7.4 times bigger for ALL than the same difference for QLE (P=7.8×10^−5), and the difference for antibody was 8.9 times bigger than for QLE (P=2.5×10^−5), by ANOVA on log-transformed data. Results are an average of 6 images collected independently.
(§3) On confocal microscopy, it was shown that ALL*-Cy5.5 binds to the surface (arrows) of cells with different levels of GPC3 expression. […] GPC3 is highly overexpressed in Hep3B cell cytosol and membrane while moderately expressed in HepG2 cells. No GPC3 expression is observed in SK-Hep1 cells. Tubulin serves as loading control for either cytosol or membrane fractions loaded.

SK-Hep1 cells = experiment: Confocal microscopy of peptide binding to SK-Hep1 cells; type: cell-based, human
Experimental: as §2, §3

[3] = tested on: HCC xenograft tumor overexpressing GPC3; experiment: In vivo handheld dual axes confocal endomicroscope imaging; set-up: species or system mice
Experimental: GPC3 expression from human HCC xenograft tumors was evaluated in real time by collecting optical sections in vivo using a handheld 5.5 mm diameter dual axes confocal endomicroscope. A solid-state diode laser (300 mW, CNI Laser Inc.) provided illumination at λex=671 nm. A parabolic mirror focused the illumination and collection beams to overlap below the tissue surface with lateral and axial resolution of 2 and 5 μm, respectively. A compact, 3D monolithic scanner located in the distal tip provided large vertical displacements and wide angular deflections to produce images in the vertical (XZ) and horizontal (XY) planes with a FOV of 1000×430 and 1000×1000 μm^2, respectively. NIR fluorescence is collected and passes through a band pass filter (FF01-716/40-25, Semrock) that transmits from 696-736 nm with >93% efficiency for detection with a photomultiplier tube (PMT, H7422PA-40, Hamamatsu) detector. The peptides were injected via the tail vain, and dissected away the skin overlying the tumor to gain access. The distal tip of the endomicroscope was placed in contact with the tumor using a drop of saline to couple the light. Laser power <2 mW on the tissue was used to avoid photobleaching. NIR fluorescence images were collected at 5 frames per sec. 3D volumetric images were reconstructed from a series of images collected in the vertical plane using Amira software (ver 5.4.3, FEI Corporation).
The probe was small enough to be comfortably held in the surgeon's hand during surgery, FIG. 12A, for in vivo imaging of biomarker expression. Its diameter was 5.5 mm and delivered 671 nm near-infrared laser at 2 mW. Mouse carrying HCC xenograft tumor overexpressing GPC3 was first injected with 250 μL 300 μM ALL*-Cy5.5 peptide intravenously and after 2 hours the probe was held in contact with exposed subcutaneous tumor to acquire in vivo peptide binding images, FIG. 12B. Images were collected in either the vertical or horizontal plane with 430 μm depth or 1000×1000 μm^2 area, respectively, at 5 frames per second. With measured lateral resolution of 2.49 μm and axial resolution of 4.98 μm, each peptide stained cell can be clearly seen (arrows). […] Strong uptake (arrows) of ALL*-Cy5.5 in tumor was captured on optical sections collected in the horizontal (1000×1000 μm^2, Video 1) FIG. 12C and vertical (1000×430 μm^2, Video 2) FIG. 12D planes, respectively. A series of vertical cross-section images were reconstructed into 3D MIP volume (Video 3), FIG. 12E.

HepG2 human HCC cells = experiment: Confocal microscopy of peptide binding to HepG2 cells; type: cell-based; details: HepG2 cells, confocal microscopy
Experimental: as §2, §3

GPC3 = molecular target: T1, GPC3 (Homo sapiens, UniProt P51654); experiment: siRNA knockdown of GPC3 in Hep3B cells, confocal fluorescence; type: cell-based; details: Hep3B cells transfected with non-targeting siRNA (siCL)
T1 construct: endogenous in cells; host or cells: Hep3B human HCC cells (siCL control vs siGPC3 knockdown); also HepG2; SK-Hep1 as GPC3-negative control
Experimental: as §2
The specificity of lead candidate peptide reagent binding was validated by siRNA knockdown of GPC3 in human HCC cells. The cells were transfected with siRNA to knockdown cell surface expression of GPC3. […] These cells were transfected with non-targeting siRNA (siCL) for use as control. […] FIG. 6-1D,E show ˜4-fold reduction in fluorescence intensity with both the peptide reagent and anti-GPC3 antibody, respectively, for Hep3B cells transfected with siRNA (siGPC3) to knock down GPC3 expression. […] FIG. 6-2M, N, O and P show the same result as original FIG. 6-1A, B, D and E.

advanced HCC = details: cited from earlier work

Chain of purified recombinant GPC3 core protein (P51654 25-554): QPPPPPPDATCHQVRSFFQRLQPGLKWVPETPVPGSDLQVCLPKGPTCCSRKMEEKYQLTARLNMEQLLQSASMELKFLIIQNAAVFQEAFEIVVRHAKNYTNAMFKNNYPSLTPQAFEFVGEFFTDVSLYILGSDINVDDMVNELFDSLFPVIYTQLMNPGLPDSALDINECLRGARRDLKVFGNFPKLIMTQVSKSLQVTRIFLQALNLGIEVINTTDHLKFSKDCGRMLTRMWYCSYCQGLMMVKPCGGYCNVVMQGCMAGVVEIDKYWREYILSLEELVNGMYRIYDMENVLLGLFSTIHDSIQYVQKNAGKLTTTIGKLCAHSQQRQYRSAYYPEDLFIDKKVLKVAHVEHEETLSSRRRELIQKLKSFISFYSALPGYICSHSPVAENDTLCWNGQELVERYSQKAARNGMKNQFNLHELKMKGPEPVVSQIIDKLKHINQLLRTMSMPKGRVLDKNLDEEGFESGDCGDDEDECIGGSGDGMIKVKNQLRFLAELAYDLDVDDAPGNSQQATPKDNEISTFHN
T1 sequence (P51654 25-554): as above

QRH*-Cy5.5: label printed in b35/b133 without definition; apparently a misprint for QLE*-Cy5.5 or ALL*-Cy5.5 (QRHKPREGGGSK; not fully specified (C-terminus); also: Cy5.5 label, site not given here, QRH* code without meaning)
target-to-background (T/B) ratio (Hep3B xenograft): 3.0±0.7

CCN1\C(=C/C=C/C=C/C2=[N+](CCCCCC(=O)O)c3ccc4c(S(=O)(=O)O)cc(S(=O)(=O)O)cc4c3C2(C)C)C(C)(C)c2c1ccc1c(S(=O)(=O)[O-])cc(S(=O)(=O)O)cc21 [free Cy5.5 dye, reference compound]
time of peak uptake/signal post injection ([1]; i.v. injection, whole-body NIR imaging): 0.5 h

ALLANHEELFQT [ALL*]
effect of unlabeled peptide on ALL*-Cy5.5 fluorescence intensity (Hep3B cells): dose-dependent decrease
concentration of unlabeled peptide giving significant decrease in ALL*-Cy5.5 binding (Hep3B cells; unlabeled peptide 0-500 μM): ≥ 50 µM

QLELTFHANLEA [QLE*, scrambled (control) peptide, unlabeled, reference compound]
effect of unlabeled peptide on ALL*-Cy5.5 fluorescence intensity (Hep3B cells): no change

ALLANHEELF
level of enrichment in biopanning [2]: highest level of enrichment

QLE*-Cy5.5: scrambled control peptide QLELTFHANLEA (SEQ ID NO: 6) labeled with Cy5.5 via GGGSK linker (QLELTFHANLEAGGGSK-{Cy5.5}) [reference compound]
staining of normal mouse liver (Hep3B xenograft tumors): Minimal staining
staining of xenograft sections (SK-Hep1 xenograft tumors): No staining
fluorescence intensity from binding to cell surface (Hep3B human HCC cells): Minimal signal
fluorescence intensity from binding to cell surface (SK-Hep1 cells): Minimal signal
fluorescent intensity at tumor ([3]; 2 hours after i.v. injection, n=8): 16±4
uptake/staining in tumor on optical sections ([3]; horizontal and vertical planes): Minimal staining
fluorescence intensity from binding to cell surface (HepG2 human HCC cells): Minimal signal
target-to-background (T/B) ratio (Hep3B xenograft): 3.0±0.7
target-to-background (T/B) ratio ([1]; 2 hours post injection, mean±SD): 1.12±0.19
binding to cell surface (GPC3): minimal binding

CNC(=O)c1cc(Oc2ccc(NC(=O)Nc3ccc(Cl)c(C(F)(F)F)c3)cc2)ccn1 [sorafenib, Sorafenib]
survival duration (advanced HCC; Asian patients): 6.5 months
survival duration (advanced HCC; Caucasian patients): 7.9 months
survival advantage over placebo (advanced HCC; clinic studies (SHARP)): ~3 months
